{"source": "patent US20100178259A1", "about": "“REDUCING FIBROSIS USING MATRIX METALLOPROTEINASE INHIBITORS” (The Regents of The University of Michigan, priority 2009, published 2010)", "key": {"[1]": {"tested_on": "HRS/J hairless mice skin exposed to UV irradiation", "experiment": "UV irradiation sunburn/scarring in hairless mice, topical treatment, skin cross-section histology", "format": "in vivo, mouse", "settings": "UV 200-400 mJ/square cm, topical 1% MMI270 in 70% ethanol (95%) and 30% propylene glycol daily after UV exposure, compared to untreated irradiated skin (FIG. 2)", "method": "The following experiments illustrate embodiments of the present technology. Experimental mice (HRS/J hairless mice) are treated with UV irradiation at a dosage that results in sunburn and consequent scarring of the skin. UV exposure includes daily exposure (Mon-Fri), or 3× per week (Mon, Wed, Fri), at 200-400 mJ/square cm, until scarring occurs, typically after 2-3 weeks. The UVB/A2 source is FS tubes filtered with Kodacel to remove wavelengths below 290 nm. Non-irradiated mice serve as non-wounded controls.\nFIG. 1 is a photograph of a tissue cross-section of non-irradiated mouse skin. The outer surface of the skin includes a layer 110 of dead skin cells overtop the epidermis 120. Located beneath the epidermis 120, is a region comprising extracellular matrix 130, which includes collagen and other proteins. A layer of fat cells 140 underlies the extracellular matrix 130 and is followed by muscle 150. Hair follicles 160 can be seen embedded within the extracellular matrix 130 region.\nFIG. 2 is a photograph of a tissue cross-section of mouse skin that was exposed to UV irradiation to cause a burn and that was not treated with MMP inhibitor. Morphology of the skin changes in response to the burn wound which can subsequently form into a scar. The outer skin surface and layer 210 of dead skin cells overlies a thickened epidermis 220 followed by a thickened region of extracellular matrix 230. […]"}, "[2]": {"biological_target": "T1, MMP-1 (Homo sapiens, UniProt P03956)", "T1 sequence (P03956 100-469)": "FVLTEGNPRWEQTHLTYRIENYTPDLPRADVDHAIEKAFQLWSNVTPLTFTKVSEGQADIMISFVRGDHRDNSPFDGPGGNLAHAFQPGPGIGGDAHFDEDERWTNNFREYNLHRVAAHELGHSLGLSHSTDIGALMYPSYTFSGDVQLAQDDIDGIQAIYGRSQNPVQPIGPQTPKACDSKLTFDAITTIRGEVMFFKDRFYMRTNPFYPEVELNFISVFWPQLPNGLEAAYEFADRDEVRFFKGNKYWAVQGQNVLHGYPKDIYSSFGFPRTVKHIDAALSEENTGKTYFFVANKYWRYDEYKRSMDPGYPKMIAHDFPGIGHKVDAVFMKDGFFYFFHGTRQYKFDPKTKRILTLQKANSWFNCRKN", "settings": "in vitro; cited from earlier work"}, "[3]": {"biological_target": "T2, MMP-2 (Homo sapiens, UniProt P08253)", "T2 sequence (P08253 110-660)": "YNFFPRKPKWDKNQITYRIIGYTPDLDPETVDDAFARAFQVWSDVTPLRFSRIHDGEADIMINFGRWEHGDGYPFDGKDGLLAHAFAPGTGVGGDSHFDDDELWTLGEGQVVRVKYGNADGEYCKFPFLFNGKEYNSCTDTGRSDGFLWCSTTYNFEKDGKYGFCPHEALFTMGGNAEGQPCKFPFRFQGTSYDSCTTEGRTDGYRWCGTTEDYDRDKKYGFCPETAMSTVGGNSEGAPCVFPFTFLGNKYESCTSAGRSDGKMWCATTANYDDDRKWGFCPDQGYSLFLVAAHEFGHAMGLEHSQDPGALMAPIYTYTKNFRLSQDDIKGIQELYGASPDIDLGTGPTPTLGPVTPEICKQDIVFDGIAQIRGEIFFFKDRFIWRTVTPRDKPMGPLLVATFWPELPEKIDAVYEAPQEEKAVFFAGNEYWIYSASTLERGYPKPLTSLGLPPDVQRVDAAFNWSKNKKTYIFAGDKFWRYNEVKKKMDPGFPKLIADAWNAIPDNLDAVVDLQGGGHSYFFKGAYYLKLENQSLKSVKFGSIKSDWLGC", "settings": "in vitro; cited from earlier work"}, "[4]": {"biological_target": "MMP-3 (Homo sapiens, UniProt P08254)", "sequence (P08254 100-477, species assumed)": "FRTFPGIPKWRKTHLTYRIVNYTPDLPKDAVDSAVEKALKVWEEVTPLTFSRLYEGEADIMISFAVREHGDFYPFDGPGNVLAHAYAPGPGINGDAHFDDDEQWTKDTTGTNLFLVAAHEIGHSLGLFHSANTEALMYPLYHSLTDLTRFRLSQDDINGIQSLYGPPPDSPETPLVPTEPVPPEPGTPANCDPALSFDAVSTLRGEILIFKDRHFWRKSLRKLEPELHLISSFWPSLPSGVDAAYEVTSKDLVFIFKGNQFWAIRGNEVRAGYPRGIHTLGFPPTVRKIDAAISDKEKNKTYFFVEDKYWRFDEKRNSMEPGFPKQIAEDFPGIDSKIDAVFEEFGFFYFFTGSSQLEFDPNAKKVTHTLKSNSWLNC", "settings": "in vitro; cited from earlier work"}, "[5]": {"biological_target": "MMP-9 (Homo sapiens, UniProt P14780)", "sequence (P14780 94-707, species assumed)": "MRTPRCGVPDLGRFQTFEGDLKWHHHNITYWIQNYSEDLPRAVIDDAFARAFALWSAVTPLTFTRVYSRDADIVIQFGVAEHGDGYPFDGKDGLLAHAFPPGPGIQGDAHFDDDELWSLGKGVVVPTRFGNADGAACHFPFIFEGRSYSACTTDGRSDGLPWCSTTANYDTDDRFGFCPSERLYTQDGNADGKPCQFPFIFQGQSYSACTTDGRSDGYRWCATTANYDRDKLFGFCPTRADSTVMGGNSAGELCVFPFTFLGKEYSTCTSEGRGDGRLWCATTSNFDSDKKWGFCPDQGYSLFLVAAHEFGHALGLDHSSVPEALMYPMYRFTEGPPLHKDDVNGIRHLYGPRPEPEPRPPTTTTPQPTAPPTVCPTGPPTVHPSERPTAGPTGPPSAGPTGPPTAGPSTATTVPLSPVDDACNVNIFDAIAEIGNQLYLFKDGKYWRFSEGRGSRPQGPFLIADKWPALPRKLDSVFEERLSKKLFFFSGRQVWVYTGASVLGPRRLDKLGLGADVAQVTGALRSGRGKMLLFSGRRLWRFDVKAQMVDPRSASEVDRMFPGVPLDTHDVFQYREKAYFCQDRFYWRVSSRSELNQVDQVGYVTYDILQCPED", "settings": "in vitro; cited from earlier work"}}, "note": "Entries after “also recorded” stand apart in the source; their conditions may differ."}
{"smiles": "COc1ccc(S(=O)(=O)N(Cc2cccnc2)[C@@H](C(=O)NO)C(C)C)cc1", "note": "[MMI270, N-hydroxy-2(R)-[[4-methoxybenzenesulfonyl]-(3-picolyl)amino]-3-methylbutanamide]", "values": [{"measurement": "expansion and thickening of the epidermis and extracellular matrix", "setting": "[1]", "result": "less expansion and thickening of the epidermis and extracellular matrix; also recorded: decrease in thickness of the extracellular matrix"}, {"measurement": "concentration inhibiting MMP-1 activity", "setting": "[2]", "result": "nanomolar concentrations"}, {"measurement": "concentration inhibiting MMP-2 activity", "setting": "[3]", "result": "nanomolar concentrations"}, {"measurement": "concentration inhibiting MMP-3 activity", "setting": "[4]", "result": "nanomolar concentrations"}, {"measurement": "concentration inhibiting MMP-9 activity", "setting": "[5]", "result": "nanomolar concentrations"}]}
